Data reported in US20160159789A1, “SUBSTITUTED PYRAZOLOPYRIDINES” (BAYER PHARMA AKTIENGESELLSCHAFT, priority 2013, published 2016).

Target: T1, human full-length MKNK1 (Homo sapiens, UniProt Q9BUB5, T385D)
T1 construct: purchased Carna Biosciences 02-145; host or cells: insect cells (baculovirus expression system)
Assay: MKNK1 kinase high ATP assay (TR-FRET)
Format: biochemical
Conditions: high ATP (2 mM final), 15 min preincubation with enzyme, GST-MKNK1 (T344D)
Method: MKNK1-inhibitory activity at high ATP of compounds of the present invention after their preincubation with MKNK1 was quantified employing the TR-FRET-based MKNK1 high ATP assay as described in the following paragraphs.
A recombinant fusion protein of Glutathione-S-Transferase (GST, N-terminally) and human full-length MKNK1 (amino acids 1-424 and T344D of accession number BAA 19885.1), expressed in insect cells using baculovirus expression system and purified via glutathione sepharose affinity chromatography, was purchased from Carna Biosciences (product no 02-145) and used as enzyme. As substrate for the kinase reaction the biotinylated peptide biotin-Ahx-IKKRKLTRRKSLKG (C-terminus in amide form) was used, which can be purchased e.g. from the company Biosyntan (Berlin-Buch, Germany).
For the assay 50 nL of a 100 fold concentrated solution of the test compound in DMSO was pipetted into a black low volume 384 well microtiter plate (Greiner Bio-One, Frickenhausen, Germany), 2 μL of a solution of MKNK1 in aqueous assay buffer [50 mM HEPES pH 7.5, 5 mM MgCl2, 1.0 mM dithiothreitol, 0.005% (v/v) Nonidet-P40 (Sigma)] was added and the mixture was incubated for 15 min at 22° C. to allow pre-binding of the test compounds to the enzyme before the start of the kinase reaction. Then the kinase reaction was started by the addition of 3 μL of a solution of adenosine-tri-phosphate (ATP, 3.3 mM=> final conc. in the 5 μL assay volume is 2 mM) and substrate (0.1 μM=> final conc. in the 5 μL assay volume is 0.06 μM) in assay buffer and the resulting mixture was incubated for a reaction time of 30 min at 22° C. The concentration of MKNK1 was adjusted depending of the activity of the enzyme lot and was chosen appropriate to have the assay in the linear range, typical concentrations were in the range of 0.003 μg/mL. The reaction was stopped by the addition of 5 μL of a solution of TR-FRET detection reagents (5 nM streptavidine-XL665 [Cisbio Bioassays, Codolet, France] and 1 nM anti-ribosomal protein S6 (pSer236)-antibody from Invitrogen [#44921G] and 1 nM LANCE EU-W1024 labeled ProteinG [Perkin-Elmer, product no. AD0071]) in an aqueous EDTA-solution (100 mM EDTA, 0.1% (w/v) bovine serum albumin in 50 mM HEPES pH 7.5).
The resulting mixture was incubated for 1 h at 22° C. to allow the formation of complex between the phosphorylated biotinylated peptide and the detection reagents. Subsequently the amount of phosphorylated substrate was evaluated by measurement of the resonance energy transfer from the Eu-chelate to the streptavidine-XL. Therefore, the fluorescence emissions at 620 nm and 665 nm after excitation at 350 nm were measured in a TR-FRET reader, e.g. a Rubystar (BMG Labtechnologies, Offenburg, Germany) or a Viewlux (Perkin-Elmer). The ratio of the emissions at 665 nm and at […] was taken as the measure for the amount of phosphorylated substrate. The data were normalised (enzyme reaction without inhibitor=0% inhibition, all other assay components but no enzyme=100% inhibition).

T1 sequence (Q9BUB5 1-424 isoform Q9BUB5-2 T344D): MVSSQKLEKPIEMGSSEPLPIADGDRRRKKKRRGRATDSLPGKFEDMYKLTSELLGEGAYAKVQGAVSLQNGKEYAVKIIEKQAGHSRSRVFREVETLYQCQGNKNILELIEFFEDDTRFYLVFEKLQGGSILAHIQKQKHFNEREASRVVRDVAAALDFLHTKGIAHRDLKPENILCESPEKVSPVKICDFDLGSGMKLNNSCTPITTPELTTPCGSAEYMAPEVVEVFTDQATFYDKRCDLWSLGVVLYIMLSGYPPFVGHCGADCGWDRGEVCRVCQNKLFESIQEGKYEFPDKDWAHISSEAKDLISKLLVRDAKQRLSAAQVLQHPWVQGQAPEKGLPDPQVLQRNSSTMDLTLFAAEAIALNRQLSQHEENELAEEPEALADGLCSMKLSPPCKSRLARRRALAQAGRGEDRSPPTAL

Structure (SMILES) | IC50
CN(C)[C@H]1CCN(C(=O)[C@H]2CCc3c(sc4ncnc(Nc5cnc6[nH]ncc6c5)c34)C2)C1 [Example 100, [(3S)-3-(Dimethylamino)pyrrolidin-1-yl][(7S)-4-(1H-pyrazolo[3,4-b]pyridin-5-ylamino)-5,6,7,8-tetrahydro[1]benzothieno[2,3-d]pyrimidin-7-yl]methanone] | 3.7 nM
CC(C)N(C)C(=O)[C@H]1CCc2c(sc3ncnc(Nc4cnc5[nH]ncc5c4)c23)C1 [Example 95, (7S)—N-Methyl-N-(propan-2-yl)-4-(1H-pyrazolo[3,4-b]pyridin-5-ylamino)-5,6,7,8-tetrahydro[1]benzothieno[2,3-d]pyrimidine-7-carboxamide] | 18 nM
O=C(c1[nH]c2ncnc(Nc3cnc4[nH]ncc4c3)c2c1Br)N1CCOCC1 [Example 74, [5-Bromo-4-(1H-pyrazolo[3,4-b]pyridin-5-ylamino)-7H-pyrrolo[2,3-d]pyrimidin-6-yl](morpholin-4-yl)methanone] | 140 nM
c1nc(Nc2cnc3[nH]ncc3c2)c2cc[nH]c2n1 [Example 1, N-(7H-Pyrrolo[2,3-d]pyrimidin-4-yl)-1H-pyrazolo[3,4-b]pyridin-5-amine] | 28.1 nM
O=C(c1cc2c(Nc3cc4cn[nH]c4cn3)ncnc2[nH]1)N1CCCC1 [Example 19, [4-(1H-Pyrazolo[3,4-c]pyridin-5-ylamino)-7H-pyrrolo[2,3-d]pyrimidin-6-yl](pyrrolidin-1-yl)methanone] | 5.8 nM
CC(C)NC(=O)C1CCc2c(sc3ncnc(Nc4cnc5[nH]ncc5c4)c23)C1 (racemic) [Example 23, (RS)—N-(Propan-2-yl)-4-(1H-pyrazolo[3,4-b]pyridin-5-ylamino)-5,6,7,8-tetrahydro[1]benzothieno[2,3-d]pyrimidine-7-carboxamide] | 10.4 nM
OCc1c[nH]c2ncnc(Nc3cnc4[nH]ncc4c3)c12 [Example 17, [4-(1H-Pyrazolo[3,4-b]pyridin-5-ylamino)-7H-pyrrolo[2,3-d]pyrimidin-5-yl]methanol] | 32.2 nM
O=C(c1[nH]c2ncnc(Nc3cc4cn[nH]c4cn3)c2c1Br)N1CCCCC1 [Example 72, [5-Bromo-4-(1H-pyrazolo[3,4-c]pyridin-5-ylamino)-7H-pyrrolo[2,3-d]pyrimidin-6-yl](piperidin-1-yl)methanone] | 16 nM
CN(C)C(=O)[C@H]1CCc2c(sc3ncnc(Nc4cc5cn[nH]c5nc4O)c23)C1 [Example 54, (7S)-4-[(6-Hydroxy-1H-pyrazolo[3,4-b]pyridin-5-yl)amino]-N,N-dimethyl-5,6,7,8-tetrahydro[1]benzothieno[2,3-d]pyrimidine-7-carboxamide] | 6.9 nM
CN(C)C(=O)C1CCc2c(sc3ncnc(Nc4cc5cn[nH]c5cn4)c23)C1 (racemic) [Example 28, (RS)—N,N-Dimethyl-4-(1H-pyrazolo[3,4-c]pyridin-5-ylamino)-5,6,7,8-tetrahydro[1]benzothieno[2,3-d]pyrimidine-7-carboxamide] | 9.8 nM
O=C([C@H]1CCc2c(sc3ncnc(Nc4cc5cn[nH]c5cn4)c23)C1)N1CC2(COC2)C1 [Example 83, 2-Oxa-6-azaspiro[3.3]hept-6-yl[(7S)-4-(1H-pyrazolo[3,4-c]pyridin-5-ylamino)-5,6,7,8-tetrahydro[1]benzothieno[2,3-d]pyrimidin-7-yl]methanone] | 6.9 nM
CN(C)C(=O)C1CCc2c(sc3ncnc(Nc4cnc5[nH]ncc5c4)c23)C1 (racemic) [Example 27, (RS)—N,N-Dimethyl-4-(1H-pyrazolo[3,4-b]pyridin-5-ylamino)-5,6,7,8-tetrahydro[1]benzothieno[2,3-d]pyrimidine-7-carboxamide] | 20.3 nM
COCCN(C)C(=O)[C@H]1CCc2c(sc3ncnc(Nc4cnc5[nH]ncc5c4)c23)C1 [Example 96, (7S)—N-(2-Methoxyethyl)-N-methyl-4-(1H-pyrazolo[3,4-b]pyridin-5-ylamino)-5,6,7,8-tetrahydro[1]benzothieno[2,3-d]pyrimidine-7-carboxamide] | 18.8 nM
COc1nc2[nH]ncc2cc1Nc1ncnc2sc(C(=O)N(C)CC(=O)N(C)C)nc12 [Example 130, N-[2-(Dimethylamino)-2-oxoethyl]-7-[(6-methoxy-1H-pyrazolo[3,4-b]pyridin-5-yl)amino]-N-methyl[1,3]thiazolo[5,4-d]pyrimidine-2-carboxamide] | 212 nM
COc1nc2[nH]ncc2cc1Nc1ncnc2[nH]c(C(=O)N3CCOCC3)c(Br)c12 [Example 67, {5-Bromo-4-[(6-methoxy-1H-pyrazolo[3,4-b]pyridin-5-yl)amino]-7H-pyrrolo[2,3-d]pyrimidin-6-yl}(morpholin-4-yl)methanone] | 15.2 nM
C[C@@H]1CN(C(=O)[C@H]2CCc3c(sc4ncnc(Nc5cnc6[nH]ncc6c5)c34)C2)C[C@H](C)O1 [Example 105, [(2R,6S)-2,6-Dimethylmorpholin-4-yl][(7S)-4-(1H-pyrazolo[3,4-b]pyridin-5-ylamino)-5,6,7,8-tetrahydro[1]benzothieno[2,3-d]pyrimidin-7-yl]methanone] | 18.1 nM
CC(C)NC(=O)[C@H]1CCc2c(sc3ncnc(Nc4cc5cn[nH]c5cn4)c23)C1 [Example 80, (7S)—N-(Propan-2-yl)-4-(1H-pyrazolo[3,4-c]pyridin-5-ylamino)-5,6,7,8-tetrahydro[1]benzothieno[2,3-d]pyrimidine-7-carboxamide] | 23.9 nM
COc1nc2[nH]ncc2cc1Nc1ncnc2sc3c(c12)CC[C@H](C(=O)N1C[C@@H]2C[C@H]1CO2)C3 [Example 40] | 2.5 nM
C[C@@H]1COCCN1C(=O)c1[nH]c2ncnc(Nc3cnc4[nH]ncc4c3)c2c1Br [Example 73, [5-Bromo-4-(1H-pyrazolo[3,4-b]pyridin-5-ylamino)-7H-pyrrolo[2,3-d]pyrimidin-6-yl][(3R)-3-methylmorpholin-4-yl]methanone] | 144 nM

Further compounds by falling IC50, results first:

IC50 | Structure (SMILES)
76.8 nM | CN(C)C1CCN(C(=O)c2[nH]c3ncnc(Nc4cnc5[nH]ncc5c4)c3c2Br)CC1 [Example 127, [5-Bromo-4-(1H-pyrazolo[3,4-b]pyridin-5-ylamino)-7H-pyrrolo[2,3-d]pyrimidin-6-yl][4-(dimethylamino)piperidin-1-yl]methanone]
28.9 nM | CCc1[nH]c2ncnc(Nc3cnc4[nH]ncc4c3)c2c1C [Example 7, N-(6-Ethyl-5-methyl-7H-pyrrolo[2,3-d]pyrimidin-4-yl)-1H-pyrazolo[3,4-b]pyridin-5-amine]
24.1 nM | O=C(O)c1cc2c(Nc3cc4cn[nH]c4cn3)ncnc2[nH]1 [Example 11, 4-(1H-Pyrazolo[3,4-c]pyridin-5-ylamino)-7H-pyrrolo[2,3-d]pyrimidine-6-carboxylic acid]
16.1 nM | CCCN(C)C(=O)[C@H]1CCc2c(sc3ncnc(Nc4cc5cn[nH]c5cn4)c23)C1 [Example 81, (7S)—N-Methyl-N-propyl-4-(1H-pyrazolo[3,4-c]pyridin-5-ylamino)-5,6,7,8-tetrahydro[1]benzothieno[2,3-d]pyrimidine-7-carboxamide]
15.8 nM | O=C([C@H]1CCc2c(sc3ncnc(Nc4cnc5[nH]ncc5c4)c23)C1)N1CC2(COC2)C1 [Example 98, 2-Oxa-6-azaspiro[3.3]hept-6-yl[(7S)-4-(1H-pyrazolo[3,4-b]pyridin-5-ylamino)-5,6,7,8-tetrahydro[1]benzothieno[2,3-d]pyrimidin-7-yl]methanone]
10.8 nM | O=C(c1[nH]c2ncnc(Nc3cc4cn[nH]c4nc3O)c2c1Br)N1CCCCC1 [Example 134]
10.7 nM | CC(C)NC(=O)C1CCc2c(sc3ncnc(Nc4cc5cn[nH]c5cn4)c23)C1 (racemic) [Example 24, (RS)—N-(Propan-2-yl)-4-(1H-pyrazolo[3,4-c]pyridin-5-ylamino)-5,6,7,8-tetrahydro[1]benzothieno[2,3-d]pyrimidine-7-carboxamide]
7.3 nM | COc1nc2[nH]ncc2cc1Nc1ncnc2[nH]c(C(=O)N3CCOC[C@@H]3C)c(Br)c12 [Example 135]
0.7 nM | COc1nc2[nH]ncc2cc1Nc1ncnc2sc3c(c12)CC[C@H](C(=O)N1CC2(COC2)C1)C3 [Example 109]
0.7 nM | COc1nc2[nH]ncc2cc1Nc1ncnc2sc3c(c12)CC[C@H](C(=O)N1CCOC[C@@H]1C)C3 [Example 45]
